Patent publication US3932625A, “Method and compound for parasite control” (Purdue Research Foundation, priority 1974, dated 1976)

Tests used:
[1] = Single-dose acute toxicity (lethal dose, 50% kill of test animals); details: rat, in vivo, rats, route not stated, read-out: LD50 (lethal dose as measured by a 50% kill of test animals)
Excerpt: Thus, 5-Thio-D-glucose is suitable for administering to animals and/or humans.

[2] = test system: transport of real D-glucose across a cell membrane; details: stated as known characteristic; cited from earlier work

For `OC[C@H]1SC(O)[C@H](O)[C@@H](O)[C@@H]1O` (stereo partly drawn) [5-Thio-D-glucose], the LD50 [1] is listed as 14000 mg/kg and the “inhibition of transport of real D-glucose across a cell membrane” value [2] is listed as “inhibiting the transport of real D-glucose across a cell membrane”.
